Source: US12049455B2, “Compositions and methods for the prevention and/or treatment of mitochondrial disease, including Friedreich's ataxia” (Stealth BioTherapeutics Inc., priority 2019, dated 2024)

Tests used:
Nrf-2 = Nrf-2 Activation Assay (Nrf-2 Assay); type: cell-based, human; details: 1 μM compound, 24 hours
Method: This assay was developed internally and was designed to determine if the novel test compounds disclosed herein active Nrf-2 and thereby promote resolution of inflammation by the mechanism believed to be responsible for the activity of omaveloxolone.
Briefly, GM03665 Friedreich Ataxia patient fibroblasts were grown in 12 Well Plates (TC Cell+F) (Sarstedt, Numbrecht Germany), at a density of […] in DMEM/F12 (Gibco, ThermoFisher Scientific, Waltham, MA, USA) cell media supplemented with 10% FBS and 1% Pen/Strep. Cells were left to rest overnight at 37° C. in a humidified atmosphere with 5% CO2 to allow attachment of the cells to the culture plate. Before continuing assay visual inspection of each well was done by light microscopy to detect any possible bacterial and fungal contamination. […] After incubation, cell media was removed and total RNA from the cells was isolated using E.Z.N.A.® Total RNA Kit I (Omega Bio-tek, Norcross, Georgia, USA) spin columns, and first-strand cDNA synthesis was carried out using a High Capacity cDNA Reverse Transcription Kit (Applied Biosystems™, Foster City, CA) following the manufacturer's instructions. qPCR analysis of gene expression was performed by mixing SYBR® Green Master Mix (Applied Biosystems™) with synthesized cDNA and forward and reverse primers. […] (60 cycles), and 95° C. for 60 seconds, followed by melt curve analysis at 72-95° C., 0.3° C./sec. The relative expression levels for each gene were calculated with the ΔΔCt method and normalized to the expression of REEP5 and SNRPD3 genes.

[1] = tested on: frataxin deficient fibroblasts (GM03665); type: cell-based; details: summary of Table 7
GM03665 cells = experiment: RSL3 Toxicity Assay (RSL3 Assay); type: cell-based, human; details: protection of Friedreich's ataxia fibroblasts from RSL3
Method: In brief, GM03665 cells (Coriell Institute) were seeded in 96-well plates (Sarstedt) in DMEM cell culture media containing 10% Fetal Bovine serum and 1% Penicillin-Streptomycin (Pen-Strep) antibiotic mix at the amount of 2×10^4/mL (100 μL or 2×10^3 cells per well). Cells were left to rest overnight at 37° C. in a humidified atmosphere with 5% CO2 to allow attachment of the cells to the culture plate. Test compounds were prepared as DMSO stocks (10 mM) and were serially diluted in cell culture media to obtain 2× working solutions. Cell media was discarded and replaced by 50 μL of test compound solutions or cell media with vehicle for control wells. Within 15 minutes, 2× working solution (4 μM) of 1S,3R-RSL3 (CAS #1219810-16-8, Sigma-Aldrich) (diluted from 5 mM DMSO stock in cell culture media) was added. Final reaction volume was 100 μL and final DMSO concentration in reaction was kept below 0.2% (v/v) and equal in all wells. Final RSL3 concentration was 2 μM and test compound final concentrations in reaction were up to 1000 nM. After 24 hours of incubation cell viability was assessed by MTT test. MTT (Sigma-Aldrich) solution 1 mg/mL in 1×PBS (pH=7,4) was prepared 1 hour before the assay and filtered through Filtropur S 0.2 filters (Sarstedt). […] Absorption at 570 and 650 nm was measured using Hidex Sense microplate reader.

HepG2 cells = experiment: Rotenone Oxygraph Assay (high-resolution respirometry of intact HepG2 cells); type: cell-based, human; details: for active in Complex I by-pass (in words): summary of Table 7 (Rotenone ATP and Rotenone Oxygraph assays)
Method: The Oxygraph-2 k (O2k, OROBOROS INSTRUMENTS, Austria) was used for measurements of respiration of intact cells. The respirometry was performed in Dulbecco's Modified Eagle Medium (DMEM) high glucose without supplements. All experiments were performed at 37° C.
HepG2 cells (ATCC collection code HB-8065™) were cultured in 10 cm^2 culture dishes in DMEM high glucose medium supplemented with 10% fetal bovine serum (FBS) and 100 units/mL penicillin and 100 μg/mL streptomycin until approximately 90% confluence was reached. Immediately prior to performing the respirometric assay, the cells were washed with media without FBS, trypsinized and resuspended in DMEM high glucose without FBS.
The final concentration of intact cells in the O2k-chamber was 0.5·10^6/mL. After stabilization of respiration, the Complex I inhibitor, rotenone, at 1 μM final concentration was added to inhibit electron flux via Complex I. Then, compound to be tested was added at 10 μM final concentration, and the change in respiration rate of intact cells was monitored.

Compound: CC1=C(C)C(=O)C(CC[C@](C)(O)CC/C=C(\C)CC/C=C(\C)CCC=C2COC2)=C(C)C1=O [Compound E, 2-((R,6E,10E)-3-hydroxy-3,7,11-trimethyl-14-(oxetan-3-ylidene)tetradeca-6,10-dien-1-yl)-3,5,6-trimethylcyclohexa-2,5-diene-1,4-dione]
- activation of Nrf-2 responsive genes (in words, FIG. 7) (Nrf-2): do not activate

Compound: COC1=C(OC)C(=O)C(CCCCCCCCCCO)=C(C)C1=O [Idebenone, reference compound]
- activity in the BSO assay (in words) [1]: very weakly active/borderline inactive

Compound: CC1(C)CC[C@]2(NC(=O)C(C)(F)F)CC[C@]3(C)[C@H](C(=O)C=C4[C@@]5(C)C=C(C#N)C(=O)C(C)(C)[C@@H]5CC[C@]43C)[C@@H]2C1 [Omaveloxolone, reference compound]
- activity in the RSL3 Assay (in words) (GM03665 cells): completely inactive
- active in Complex I by-pass (in words) (HepG2 cells): are not
- activation of Nrf-2 responsive genes (in words, FIG. 7) (Nrf-2): positive

Compound: (R)-2-(3-hydroxy-3-methyl-4-(3-(trimethylsilyl)propoxy)butyl)-3,5,6-trimethylcyclohexa-2,5-diene-1,4-dione [Compound M]
- activity in the BSO assay (in words) [1]: active
- activity in the RSL3 Assay (in words) (GM03665 cells): active
- Rotenone Oxygraph Assay % Increase (Table 7) (HepG2 cells; intact HepG2 cells, rotenone 1 μM, compound 10 μM): 56.6 +/− 11.3%
- Percent increase in ATP (Rotenone Oxygraph Assay, Table 4) (HepG2 cells; intact HepG2 cells, rotenone 1 μM, compound 10 μM, change in respiration rate): 56.6 +/− 11.3%
- active in Complex I by-pass (in words) (HepG2 cells): active
- activation of Nrf-2 responsive genes (in words, FIG. 7) (Nrf-2): do not activate
- Nrf-2 Assay (Table 7) (Nrf-2; GM03665 fibroblasts, qPCR of Nrf-2 responsive genes): Inactive
